Results on five molecules are retold here after patent publication US5346814A, “Method of detecting cell response to cell-damaging energy” (Board of Trustees of the Leland Stanford Jr. University, priority 1992, dated 1994).

“Also recorded” adds a separate entry of the source.

The subject of data set [1] is RIF-1 cells. The data set is described as follows: Clonogenic survival assay after heating at 45° C., RIF-1 cells. The class given is cell-based, murine. The protocol: RIF-1 cells were grown at 37° C. in RPMI-1640 medium supplemented with 10% FBS and 2% (v/v) DMSO (dimethylsulfoxide). After seven days of growth, the medium was replaced with DMSO-free medium, and the heat sensitivity of the cells in the presence and absence of 20 mM TEA was determined by clonogenic assay as in Example 4. The results are shown in FIGS. 7A and 7B, with survival data for non-DMSO-treated RIF-1 cells shown for comparison.

Data set [2] relates to voltage-dependent potassium currents in RIF-1 cells. As to the kind of experiment: Whole-cell voltage-clamp recording of heat-inducible potassium currents in DMSO-treated RIF-1 cells. The class given is cell-based, murine. Conditions: RIF-1 cells grown in 2% DMSO. The protocol:
(§1) Voltage-Clamp Recordings.
The potassium currents of RIF-1 cells grown in the presence of 2% DMSO as above (Example 7) were determined in the presence and absence of 20 mM TEA following heating of the cells at 45° C. for 10 minutes, as in Example 2.

Data set [3] has as its system HSP70. The data set is described as follows: Western blot of HSP70 polypeptide levels in RIF-1 cells (N-27 antibody). The class given is cell-based, murine. The protocol:
Western Blot Analysis In general, following separation of cellular proteins by sodium dodecyl sulfate (SDS)-polyacrylamide gel electrophoresis, separated proteins were electroblotted onto a nitrocellulose membrane using a 25 mM Tris-HCl/192 mM glycine/20% (v/v) methanol transfer buffer (pH 8.3) in a Trans-Blot apparatus (Bio-Rad, Richmond, Calif.) at 15 V and 100 mA for 12 to 14 h. The blot was blocked in 5% nonfat dry milk in TBS (50 mM Tris containing 0.2 M NaCl, pH 7.4) at room temperature for 1h; this step and all following steps were done with continuous agitation. The primary antibody was diluted 1:200 in 3% nonfat dry milk in TBS, and the blot was incubated for 16 to 24 h at 4° C. […]
RIF-1 cells were grown for 7 days in the presence of 2% DMSO as in Example 9. After the seventh day, cells were heated at 45° C. for 10 min, and were analyzed either immediately by SDS gel/Western blot analysis, or after an additional 18 hour growth period at 37° C. to allow synthesis of heat-inducible HSP70 polypeptides. […]
In a parallel set of experiments, heating of the mock- and gene-transfectedcells was performed in the presence or absence of 20 mM TEA, and the expression of HSP70 proteins was determined by immunoblot analysis, using the HSP70-specific N-27 antibody as in Example 10.
(In general: Immunoblotting shows a protein as a band on a membrane.)

Data set [4] relates to K+ channel proteins recognized by antibody ShA-3. The data set is described as follows: Western blot of K+ channel proteins in RIF-1 cells (ShA-3 antibody). The class given is cell-based, murine. Conditions: RIF-1 cells grown in 2% DMSO for 3, 5, 7 days. The protocol:
Western Blot Analysis In general, following separation of cellular proteins by sodium dodecyl sulfate (SDS)-polyacrylamide gel electrophoresis, separated proteins were electroblotted onto a nitrocellulose membrane using a 25 mM Tris-HCl/192 mM glycine/20% (v/v) methanol transfer buffer (pH 8.3) in a Trans-Blot apparatus (Bio-Rad, Richmond, Calif.) at 15 V and 100 mA for 12 to 14 h. The blot was blocked in 5% nonfat dry milk in TBS (50 mM Tris containing 0.2 M NaCl, pH 7.4) at room temperature for 1h; this step and all following steps were done with continuous agitation. The primary antibody was diluted 1:200 in 3% nonfat dry milk in TBS, and the blot was incubated for 16 to 24 h at 4° C. The blot was washed with TBS three times for 10 min per wash, and incubated for 2 h at room temperature with a 1:500 dilution of alkaline phosphatase-conjugated antispecies antibody. After washing with TBS as above, the blot was developed by incubation for 20 min in a solution containing 3-hydroxy-2-naphthoic acid 2,4-dimethylanilide phosphate (1 μg/ml ) and fast red (2 μg/ml) in TBS buffer. The developed blot was washed in distilled, deionized water to stop the color reaction.
RIF-1 and TR-4 cells were grown in exponential phase at 37° C. in RPMI-1640 medium supplemented with 10% FBS. […]

The test system of data set [5] is voltage-dependent potassium currents in A549 cells. The data set is described as follows: Whole-cell voltage-clamp recording of K+ currents in non-irradiated A549 cells after chemical treatment. Type of data set: cell-based, human.
Data set [6] has the same test system. As to the kind of experiment: Whole-cell voltage-clamp recording of radiation-induced K+ currents in A549 cells. The class given is cell-based, human. The protocol: as §1
In a second study, to determine whether the induced currents -were affected by the presence of TEA, A549 cells were exposed to 150 cGy of 137Cs γ-irradiation, and the radiation-induced currents were measured under three different conditions: (a) directly after irradiation, (b) after replacement of the bath solution with medium containing 20 mM TEA and (c) after the TEA solution of step (b) had been replaced with TEA-free medium.
A549 cells grown as described in the Materials and Methods section were preincubated for 1 h in medium containing 20 mM N-acetylcysteine (NAC) (Schreck et al., 1991). The cells, still in the presence of NAC, were then irradiated (150 cGy), and the induced currents were recorded. The results are shown in FIG. 19 (open circles, irradiation without NAC preincubation; open triangles, preincubation with 20 mM NAC; solid circles, non-irradiated control cells).

Data set [7] concerns TR-4 cells. As to conditions: 20 mM TEA during 45° C. 40 min heating step and/or 12 h 37° C. incubation. The protocol: The development of thermotolerance in TR-4 cells in the presence or absence of 20 mM TEA was assessed by heating the cells at 45° C. for 40 min, followed by a 12 h incubation at 37° C. (Hahn and van Kersen, 1988), and assessment of cell survival following heating and clonogenic assay as described in Example 4. Five groups of TR-4 cells (a to e) were examined, differing only as to which steps of the procedure included TEA in the cell medium.

In data set [8] the test system is voltage-dependent potassium channel currents in TR-4 cells. Conditions: 20 mM TEA in cell medium during current measurement; TR-4 cells heated 45° C. 10 min.
Method: Voltage-Clamp Recordings. Whole-cell recording was performed by voltage clamp analysis as described by Hamill et al. (1981). In general, prior to whole cell recording, the cell medium was replaced with serum-free medium to ensure a better giga-ohm seal. Glass electrodes were prepared using a vertical pipette puller (model P30 from Sutter Instruments, Calif.). The tip diameter to be achieve depended upon the size of the cell-type being examined, but was generally between about 0.5 and 1 μm. Glass electrodes having a tip resistance of 3-7 Mohms were sylgarded (with Sylgard, Dow Chemical) and backfilled with a solution containing 140 mM KCl, 2 mM MgCl2, 11 mM EGTA, 1 mM CaCl2, and 10 mM Hepes, pH 7.2. […] The membrane seal resistance was determined from the reduction in voltage of the test pulse.
Membrane currents were filtered at 2 kHz using a 4-pole low pass Bessel filter before sampling with a 12-bit digital-analog converter controlled by a Labmaster board (Scientific Solutions) in an IBM AT computer. Leakage currents were subtracted from the total currents measured at each voltage either by using a p,p/4 algorithm (Armstrong and Bezanilla, 1974) built into the software (INDEC Systems, Santa Cruz, Calif.), or after determining the linear component from the current-voltage (I-V) relation near the holding potential of -75 mV. […]
Data set [9] concerns heat shock factor (HSF). The protocol: To determine whether the presence of TEA during heating prevented the activation of heat shock factor (HSF), RIF-1 and TR-4 cells grown as in Example 1 were heated at 45° C. for 15-40 minutes in the presence or absence of 20 mM TEA in the medium. After being washed with fresh medium (no TEA), the cells were harvested, and gel retardation assays were performed as described by Zimarino et al. (1987), except that the electrophoresis was performed on a 4.5% native polyacrylamide gel in 0.5X TBE buffer (45 mM Tris-borate, 1 mM EDTA) at 140 V at room temperature for 2.5 h. The gel was fixed by soaking in 7% acetic acid for 5 min, rinsed briefly in distilled water, and dried on Whatman 3 MM chromatography paper. The gel was then autoradiographed by exposing Kodak XAR-2 film to the gels at -70° C. with intensifying screens (Cronex Lighting Plus, Dupont).

Data set [10] has as its system A549 cells. Conditions: 20 mM TEA in cell medium during irradiation, doses greater than about 200 cGy. The protocol:
γ-irradiation. Cells were irradiated at room temperature using a ^137 [Cs] source at a dose rate of 150 cGy/min. The ^137 [Cs] source consisted of a Mark I irradiator (model 30, 2000 Ci ^137 [Cs]) from J. L. Shepherd and Associates (Glendale, Calif.). Unless noted otherwise, the cells were incubated at 37° C. after irradiation for further characterization.
In another experiment, cell survival of A549 cells was measured as a function of ^137 Cs irradiation dosages (0-1000 cGy) in the presence or absence of 20 mM TEA in the cell medium during irradiation.

In the case of `C[S+](C)[O-]` [DMSO, dimethylsulfoxide], in [1] (RIF-1 cells cultured in 2% (v:v) DMSO for seven days, then heated at 45° C.), the “heat resistance of cells cultured in DMSO” value is on record as “significantly more heat resistant”. Also, the “voltage-dependent potassium currents in DMSO-cultured cells after heating” value in data set [2] (heated 45° C. 10 min) is on record as “exhibited voltage-dependent potassium currents”. Moreover, the “effect on level of cellular HSP70” value in data set [3] (RIF-1 cells grown 7 days in 2% DMSO, heated 45° C. 10 min, analyzed directly or after 18 hour growth) is “no effect on the level of cellular HSP70”. In addition, in [4], the “expression of K+ channel proteins recognized by ShA-3 antibody” value is “expressed at higher levels than in cells grown without DMSO; also recorded: increased with increasing duration of exposure”.

`OO` [Hydrogen peroxide, hydrogen peroxide]: in data set [5] (3.0 μM final concentration in cell medium, measured within 30 seconds), the “induction of voltage-dependent potassium current” value was “sizeable voltage-dependent current”.

In the case of `CC(=O)N[C@@H](CS)C(=O)O` [N-acetylcysteine], the “effect on induction of potassium currents by irradiation” value in data set [6] (20 mM, 1 h preincubation and present during 150 cGy irradiation) is listed as “effective to substantially reduce current induction”.

With `CC[N+](CC)(CC)CC.[Cl-]` [TEA, Tetraethylammonium chloride], the “effect on survival rate after heating” value in data set [1] (20 mM TEA during heating at 45° C. for 0-100 min, RIF-1 cells) is “no effect on the survival rate of the RIF-1 cells; also recorded: no effect on the survival rate of RIF-1 cells”. For the same molecule, the “effect on heat resistance of DMSO-cultured cells” value in [1] (20 mM TEA in medium during heating, RIF-1 cells cultured 7 days in 2% DMSO) is “diminished heat resistance”. Further, the “effect on radiation-induced potassium currents” value in data set [6] (20 mM TEA after 150 cGy 137Cs irradiation) was “reversible inhibition; also recorded: could be inhibited by TEA”. Moreover, in data set [7], the “effect on development of thermotolerance” value was “little effect on the development of thermotolerance”. Further, the “effect on heat-induced currents in DMSO-cultured cells” value in data set [2] (20 mM TEA in cell solution during current measurements) is “virtually abolished the currents”. In [8], the “effect on heat-induced voltage-dependent potassium currents” value is “abolished nearly all detectable current”. Also, in [9], the “effect on heat-induced activation of HSF” value was “eliminated most or all of the heat-induced activation of HSF” and the “effect on levels of activated HSF” value is recorded as “no effect on the levels of activated HSF”. Also, the “effect on cytotoxicity of 137Cs irradiation” value in data set [10] is recorded as “cytotoxicity was increased somewhat”. Moreover, in data set [3] (20 mM TEA during heating 10 min 45° C., ShakerB-transfected vs mock-transfected RIF-1 cells), the “inhibitory effect on expression of HSP70 (constitutive and inducible forms)” value is “greater in the cells transfected with the ShakerB gene than in mock transfected cells; also recorded: greater in the cells transfected with the ShakerB gene than in the mock-transfected cells”.

Take `Cc1cn([C@H]2C[C@H](O)[C@@H](CO)O2)c(=O)[nH]c1=O` [[^3 H]thymidine]: the “induction of potassium currents” value in data set [5] (2 μCi/ml for 16-18 hours prior to whole-cell recording) was “No potassium currents were observed”.
